Reference: patent publication US5814599A, “Transdermal delivery of encapsulated drugs” (Massachusetts Insitiute of Technology, priority 1995, dated 1998)
Like-named read-outs stand apart in the source and are kept apart here.

How the values were obtained:
hairless rats [1] = assay: Transdermal glucose extraction by sonophoresis in vivo; design: species or system rat; settings: 20 KHz, 62.5, continuous, 1 minute
Experimental: In vivo experiments were performed to assess the efficacy of sonophoresis across living skin. […] The hairless rats were anesthetized with a mixture of ketamine (60 mg/kg) and xylazine (10 mg/kg). After about an hour in anesthesia, a flanged glass cylinder (Crown Glass Company, diameter 20 mm, height 2 cm) was glued on the rat's back using a minimal amount of superglue (Permabond International) or vacuum grease (Dow Chemicals) on the outer edge of the flange. The center of the cylinder was located about 3 cm from the rear end of the rat. This particular site was chosen to avoid application of ultrasound directly on a sharp bone close to the body surface, which otherwise might have caused damage to the blood capillaries near the edge of the bone. The cylinder was filled with PBS (phosphate concentration=0.01M, NaCl concentration=0.137M) (Sigma Chemicals Co.). […] The concentration of glucose in PBS was measured using an assay kit (Sigma Chemicals).

[2] = Transdermal glucose extraction by sonophoresis in vitro; assay type: in vitro ADME, human; settings: for glucose concentration attained in the donor compartment: 10 minutes sonophoresis; for glucose concentration in the donor compartment as percent of that in the receiver compartment: 20 KHz, 125 mW/cm^2, continuous
Experimental: Transdermal transport of a ^14 C labeled (New England Nuclear) as well as non-labeled (Sigma Chemicals) was studied in the presence as well as in the absence of low-frequency ultrasound. The permeability experiments were performed in vitro using human cadaver skin obtained from local hospitals. […] The Franz diffusion cell consists of two compartments, the donor and the receiver compartments, with the stratum comeum facing the donor compartment. […] The donor and receiver compartments were then clamped. The receiver compartment was filled Phosphate Buffer Saline (PBS, phosphate concentration=0.01M, NaCl concentration=0.137M) (Sigma Chemicals Co.) The donor compartment was filled with a solution of either radiolabelled glucose (1 mCi/ml) or non-labeled glucose (concentration in the range of 50 mg/dL to 300 mg/dL) in separate experiments. The concentration of the permeant in the receiver compartment was measured every 5 minutes using a scintillation counter (model 2000 CA, Packard) in the case of radiolabelled glucose and using a commercially available kit (Sigma Chemicals) in the case of unlabeled glucose.
Ultrasound was applied using a sonicator (VCX 400, Sonics and Materials) operating at a frequency of 20 KHz. The ultrasound intensity was measured using a hydrophone (Model 8106, Bruel and Kjaer).
Additional experiments were performed to assess whether the amount of glucose transported by sonophoresis is proportional to the glucose concentration in the […]. In separate experiments, glucose concentration in the receiver solution was varied from 50 mg/dL to 350 mg/dL (typical variation in the blood glucose level of a diabetic patient) and performed sonophoresis using ultrasound (20 KHz, 125 mW/cm^2, continuous) for 10 minutes. […] The line shown in FIG. 3B represents the best fit.

[3] = Experimental: (§1) Materials and methods: In vivo as well as in vitro experiments were performed to study the effect of low-frequency ultrasound on the transport of insulin across the skin. In vitro experiments were performed using human cadaver skin. The skin was heat stripped by keeping it in water at 60° C. for two minutes followed by the removal of the epidermis. It was then stored at 4° C. in a humidified chamber. A piece of epidermis was taken out from the chamber prior to the experiments and was mounted on the Franz diffusion cell (Crown Bioscientific Co.) which consists of two compartments, the donor and the receiver compartment. […] The human cadaver epidermis (separated from the dermis by heat-treatment) is mounted between the two compartments and is supported by a Nylon mesh (Tetko Inc.) to avoid any damage. The skin was supported by a nylon mesh (Tetko Inc.) in order to a mimic the fact the skin in vivo is supported by mechanically strong dermis. The compartments were then clamped together. The receiver compartment was filled with 2%. BSA (Sigma Chemicals) solution in PBS (Sigma Chemicals) and the donor solution was filled with 100 U/ml solution of human recombinant insulin (Humulin Regular). The ultrasound intensity, I, (Spatial Average Temporal Peak) was calculated from the values of the acoustic pressure amplitude, P, measured using a hydrophone (Bruel and Kjaer) using the equation, I=P^2 /2.rho.c, where .rho. is the water density (1 gm/ml), and c is the velocity of ultrasound in water [1500 m/s].
[4] = In vitro skin permeability to proteins in the presence of ultrasound (Franz diffusion cell); assay type: in vitro ADME, human
Experimental: To assess whether application of ultrasound enhances transdermal protein flux, the skin permeability to these proteins in the presence of ultrasound in vitro across human cadaver epidermis in a Franz Diffusion Cell (Crown Glass Company) was measured. […] The concentration of proteins in the receiver compartment was measured every hour either by RIA or ELISA. The insulin concentration in the receiver compartment was measured every hour by Radioimmuno Assay (performed at Linco Research Inc., St. Charles). The γ-interferon concentration was measured using ELISA methods developed by Endogen Inc, and the erythropoeitin concentration was measured by ELISA (performed at ARUP, Salt Lake City). Skin permeabilities to proteins were calculated using the transdermal fluxes measured during the first hour. The transdermal flux can be calculated using the equation, J=DM/.increment.t, where .increment.M is the amount of protein transported per unit skin area during time .increment.t. The skin permeabilities, P, can be calculated from the transdermal flux, J, during the first hour of ultrasound application using the equation, P=J/.increment.C, where .increment.C is the concentration difference across the skin.

hairless rats [5] = assay: In vivo insulin sonophoresis, blood glucose level of normal hairless rats; settings: for amount of insulin delivered: 225 mW/cm^2, area 3 cm^2; for blood glucose level after ultrasound exposure: normal rats, from about 250 mg/dl
Experimental: Materials and Methods: In vivo experiments were performed using hairless rats (Charles River). The rats were kept in quarantine to insure good health. On the day of experiment, they were taken out of the cages, anesthetized using a mixture of ketamine (90 mg/kg) and xylazine (10 mg/kg). After about an hour into anesthesia, a glass chamber was glued to the back of the rat using superglue (Permeabond). The glass chamber was filled with 100 U/ml solution of insulin and ultrasound (frequency of 20 KHz, intensity in the range of 0 to 1 W/cm^2, 100 msec pulses applied every second) was applied. The blood glucose level was measured every 30 minutes. Ultrasound was typically turned OFF after 1 hour, although the measurements of the blood glucose were continued for the next three hours.
To estimate the amount of insulin penetrating the hairless rat skin during sonophoresis at the various intensities reported in FIG. 2A, various known amounts of insulin in the range of 0 to 1 U subcutaneously (most commonly used method of insulin administration today) in normal rats. The blood glucose levels of these rats were then compared with those of the normal rats undergoing sonophoresis.
In order to estimate the dependence of the amount of insulin delivered on ultrasound exposure time (in vivo), insulin-sonophoresis experiments (20 KHz, […], 100 msec pulses applied every second) were performed on normal rats for different exposure times in the range of 1 minute to 1 hour.

[6] = remark: listed apart in the source
Experimental: as §1
Ultrasound was turned ON at a frequency of 20 KHz, an intensity varying in the range of 0 to 1 W/cm^2 and 10% duty cycle. Samples (200 μl) were taken from the receiver compartment every hour to measure the concentration of insulin in the receiver compartment. The samples were immediately frozen and were stored at -20° C. till they were analyzed by RIA (Linco Research Co.). Ultrasound was typically applied for 4 hours and was then turned OFF. Transdermal insulin flux was followed for next two hours.

[7] = diabetic hairless rats
diabetic hairless rats = assay: In vivo insulin sonophoresis, blood glucose level of diabetic hairless rats; design: species or system rat; settings: in 30 minutes, 20 KHz
Experimental: The blood glucose level was measured every 30 minutes.

[8] = within 2 hours after turning ultrasound OFF

## O=C[C@H](O)[C@@H](O)[C@H](O)[C@H](O)CO [glucose]
Hairless rats [1]; rat blood glucose 450 mg/dL
  glucose concentration in the reservoir after extraction: 1 mg/dL
Hairless rats [1]; rat blood glucose about 200 mg/dL
  glucose concentration in the reservoir after extraction: 0.2 mg/dL
[2]; receiver compartment 50 mg/dL
  glucose concentration attained in the donor compartment: 0.5 mg/dL
[2]; receiver compartment 350 mg/dL
  glucose concentration attained in the donor compartment: 6.5 mg/dL
[2]; after 5 minutes of sonophoresis
  glucose concentration in the donor compartment as percent of that in the receiver compartment: about 0.5%
[2]; after 10 minutes of sonophoresis
  glucose concentration in the donor compartment as percent of that in the receiver compartment: about 2%

## O [water]
[3]; during sonophoresis, 20 KHz, 125 mW/cm^2, 100 msec pulses every second
  water permeability enhancement: 100 fold
[3]; [8]
  recovery of water permeability enhancement: about 94 (±3) %
[3]; within 15 hours after turning ultrasound OFF
  recovery of water permeability enhancement: 98 (±1) %

## erythropoeitin
[4]
  dose deliverable from a transdermal patch by sonophoresis: about 140 U/h
  human skin permeability: 9.8×10^-6 (±40%) cm/h

## insulin
Hairless rats [5]; 20 KHz, 100 msec pulses every second, intensities 0 to 225 mW/cm^2
  blood glucose level upon 1 hour insulin-ultrasound treatment: intensity dependent decrease
Hairless rats [5]; 10 minute ultrasound application
  amount of insulin delivered: about 100 mU
Hairless rats [5]; 1 hour ultrasound exposure
  amount of insulin delivered: about 1 U
Hairless rats [5]; 10 minute exposure, 20 KHz
  blood glucose level after ultrasound exposure: about 150 mg/dl
Hairless rats [5]; 1 hour exposure, 20 KHz
  blood glucose level after ultrasound exposure: about 30 mg/dl
Hairless rats [5]; sonophoresis 1 hour at 62.5 mW/cm^2
  subcutaneous insulin dose inducing a similar decrease in blood glucose level: 100 mU
Hairless rats [5]; sonophoresis 1 hour at 225 mW/cm^2
  subcutaneous insulin dose inducing a similar decrease in blood glucose level: 1 U
[6]; before ultrasound turned ON
  transdermal insulin flux before ultrasound: below the detection limit
[6]; flux 100 mU/cm^2 /hr, patch area 100 cm^2
  insulin dose that could be delivered from a patch: about 13 U/h
[6]; three hours after turning ultrasound OFF
  transdermal insulin flux after turning ultrasound OFF: statistically insignificant
[6]; ultrasound 20 KHz, 125 mW/cm^2, 10%, reached in about 1 hour, almost constant while ultrasound ON, donor 100 U/ml
  transdermal insulin flux: about 100 mU/cm^2 /hr
[6]; ultrasound intensity = 0 (FIG. 1B)
  transdermal insulin permeability without ultrasound: impermeable
[6]; [8]
  transdermal insulin flux after turning ultrasound OFF: below our detection limit
[4]; patch area 40 cm^2, donor 100 U/ml insulin, 3×10^7 γ-interferon, 3×10^5 U/ml erythropoeitin
  dose deliverable from a transdermal patch by sonophoresis: about 12 U/h
[4]; ultrasound 20 KHz, 225 mW/cm^2, 100 msec pulses every second, first hour
  human skin permeability: 3.3×10^-3 (±35%) cm/h
[7]; after 30 minutes of sonophoresis
  level of transdermally delivered human insulin in rat plasma: 77 (±28) picomolar
[7]; after 1 hour of sonophoresis
  level of transdermally delivered human insulin in rat plasma: 178 (±84) picomolar
Diabetic hairless rats; diabetic hairless rats, from about 400 mg/dl, 225 mW/cm^2, 100 msec pulses every second
  blood glucose level after insulin-ultrasound treatment: 200 mg/dL
Diabetic hairless rats; diabetic rat, from 400 mg/dl, 125 mW/cm^2, 100 msec pulses every second
  blood glucose level after insulin-ultrasound treatment: 200 mg/dL

B1: γ-interferon (protein, UniProt P01579 24-161, looked up)
Interferon gamma: QDPYVKEAENLKKYFNAGHSDVADNGTLFLGILKNWKEESDRKIMQSQIVSFYFKLFKNFKDDQSIQKSVETIKEDMNVKFFNSNKKKRDDFEKLTNYSVTDLNVQRKAIHELIQVMAELSPAAKTGKRKRSQMLFRG
notes: γ-interferon (2500 U/ml, Genzyme Corp.), molecular weight 17,000 D
[4]
  dose deliverable from a transdermal patch by sonophoresis: about 5×10^6 U/h
  human skin permeability: 8×10^-4 (±22%) cm/h
